Experimental findings from patent publication US7018828B1, “Microbial culture medium containing agar and iota carrageenan” (priority 2001, dated 2006) are described below.

Data set [1] can be described thus: Syneresis of agar-based media (Blood, Chocolate, MacConkey, Azide blood agar) after storage. Conditions: 0.2% iota carrageenan plus 1 mM calcium chloride; each of four agars; 28 days at 5° C. Type of data set: physicochemical. How it is done: In a first example, the ability of iota carrageenan to stabilize agar-based media was assessed. The media chosen for this example were used in several of the embodiments of the agar-based media of the invention listed in this application. More specifically, in this example, Blood agar, Chocolate agar, MacConkey agar, and Azide blood agar were each prepared three different ways: (1) without any additions, to serve as a control, (2) with the addition of 0.2% (final concentration) Iota Carrageenan, and (3) with the addition of 0.2% Iota Carrageenan plus 1 mM Calcium chloride. These additions were made at time of hydration as described above, and prior to autoclaving. Following the sterilization step (autoclaving), the processes of preparing blood agar, chocolate agar and azide blood agar from the base media were performed using standard microbiology methods. Defibrinated sterile sheep red blood cells and sodium azide were two of the reagents used. The complete MacConkey medium was prepared using all three ways prior to autoclaving. Each of the twelve different media were dispensed at 50° C. into four polystyrene sterile T-flasks (25 cm^2) with tight-fitting screw caps and stored for 28 days at refrigerator temperature(5° C.), at which point the amount of water of syneresis was measured. […]

The nature of data set [2]: Syneresis of Mueller-Hinton agar at various iota carrageenan concentrations with and without calcium. Type of data set: physicochemical. Conditions: 1 mM calcium added; media with 0.4%, 0.6% and 0.8% iota carrageenan. How it is done: In a second example, research was conducted to determine the ability of iota carrageenan to stabilize agar gels at a variety of concentrations of carrageenan with and without calcium. The results of this research are summarized in the tables of FIG. 41A entitled: “The Effect of Iota Carrageenan, Without Added Calcium, on Syneresis of Mueller-Hinton Agar,” and in FIG. 42A, entitled: “The Effect of Iota Carrageenan, with 1 mM added Calcium, on Syneresis of Mueller-Hinton Agar. The graphs associated with the above two figures found in FIG. 41B and 42B pictorially illustrate the syneresis-reducing-effect of iota carrageenan and the synergistic effects of adding calcium with certain concentrations of iota carrageenan

Regarding `[Ca+2].[Cl-].[Cl-]` [calcium, Calcium chloride], in data set [1], the “amount of water of syneresis, effect of adding calcium to carrageenan media” value was “further reduced the amount of syneresis”. For the same compound, in data set [2], the “syneresis of Mueller-Hinton agar, effect of adding calcium” value is listed as “effect of adding calcium is also apparent”.
